Laboratory results: ChEMBL document CHEMBL1201862, “PubChem BioAssay data set” (2004)
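Results reflect a 48-hour exposure of cells in 96-well plates to compound at five concentrations. GI50 = concentration required for 50% inhibition of growth.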 Activity calls are given as the source filed them. Cut-off read from the data, not from the text of the source: active = GI50 up to about 1.1 µM and inactive = higher. Where a SMILES comes first, the peptide text is derived from it. The star is where a group is joined. Boc = CC(C)(C)OC(=O)*

Legend:
Experiment in all cases: NCI tumour cell line growth inhibition, 48 h
[1] = test system: Hs-578T
[2] = test system: T47D
[3] = test system: DMS-273
[4] = test system: KM-20L2
[5] = test system: HOP-18
[6] = test system: DMS-114
[7] = test system: SNB-78
[8] = test system: XF498

Row | Compound | GI50 [1] | GI50 [2] | further results
1 | COc1ccc(C2=Nn3c(C)nnc3S/C2=C\c2ccc(-c3ccc([N+](=O)[O-])cc3)o2)cc1 | 49.4 µM (inactive) | 4.88 µM (inactive) | 
2 | CCOC(=O)C1(C(=O)OCC)C[C@H](C)[C@](C)(O)C1 | > 100 µM (inactive) |  | 
3 | COC(=O)C(=O)C(C(=O)C(=O)Nc1ccc([N+](=O)[O-])cc1[N+](=O)[O-])c1nc2ccc(Cl)cc2nc1O (stereo not given) | 25.1 µM (inactive) | > 100 µM (inactive) | 
4 | O=C(/C=C\c1cccc2ccccc12)c1ccc(F)cc1 |  |  | GI50 [3]: 15.2 µM (inactive); GI50 [4]: 16.6 µM (inactive); GI50 [5]: 14.3 µM (inactive); GI50 [6]: 14.4 µM (inactive); GI50 [7]: 19.8 µM (inactive)
5 | Nc1ccccc1/N=C/c1cc2cc([N+](=O)[O-])ccc2s1 | 15.1 µM (inactive) | 4.13 µM (inactive) | 
6 | CC1(C)CS(=O)(=O)CC(C)(C)C(=N/N)/C1=N\N | > 100 µM (inactive) | > 100 µM (inactive) | 
7 | Cc1cc([C@H](C#N)c2nc3ccccc3s2)nc(Cl)n1 | 4.71 µM (inactive) | 2.92 µM (inactive) | 
8 | Nc1ncnc2c1ncn2C(=O)NC12CC3CC(CC(C3)C1)C2 | > 100 µM (inactive) | 4.97 µM (inactive) | 
9 | CSc1ncnc2c1cnn2CCCCO | > 100 µM (inactive) | > 100 µM (inactive) | 
10 | O=c1c(Cl)nsnc1Cl | 30.2 µM (inactive) | 3.08 µM (inactive) | 
11 | O=S(=O)(c1ccccc1)[C@H]1[C@@H]2O[C@@H]2C[C@@H]1O | > 100 µM (inactive) | > 100 µM (inactive) | 
12 | O=C(O)C1Cc2ccccc2OC1=O (stereo not given) | > 100 µM (inactive) | > 100 µM (inactive) | 
13 | CC(C)=CCN1CC(C)C(=O)Nc2ccccc21 (stereo not given) | > 100 µM (inactive) | > 100 µM (inactive) | 
14 | CC(C)CC(Nc1c(O)ccc2ccccc12)C(=O)O (stereo not given) | 21.6 µM (inactive) | 64.7 µM (inactive) | 
15 | O=C1Oc2ccccc2C(=O)/C1=C/N1C(=O)CNC1=S | > 100 µM (inactive) | > 100 µM (inactive) | 
16 | N=c1oc2ccc3ccccc3c2cc1C(N)=O | 15.6 µM (inactive) | 22.6 µM (inactive) | 
17 | CC(=O)OCC1OC(n2c(C)c(/N=N/c3ccccc3)c(C)c(C#N)c2=S)C(OC(C)=O)C(OC(C)=O)C1OC(C)=O (stereo not given) | 5.32 µM (inactive) | > 100 µM (inactive) | 

Row | Compound | GI50 [1] | GI50 [2] | further results
18 | CC(C)COC(c1ccc2c(c1)OCO2)C(C)Br (stereo not given) | 25.9 µM (inactive) |  | 
19 | CCCN/C(N)=N/C#N |  |  | GI50 [3]: 62.1 µM (inactive); GI50 [4]: 34.7 µM (inactive); GI50 [5]: > 100 µM (inactive); GI50 [6]: 19.4 µM (inactive); GI50 [7]: > 100 µM (inactive)
20 | Cc1ccc(-c2nc3n(c2/C=N\N=C(N)N)CCS3)cc1 | 18.1 µM (inactive) | 13.2 µM (inactive) | 
21 | Cc1cc2c(c(S(=O)(=O)c3ccc(Cl)cc3[N+](=O)[O-])c1)NCCC2 | > 100 µM (inactive) | 1.84 µM (inactive) | 
22 | COc1cccc(C=O)c1C(=O)c1cc(O)ccc1O |  |  | GI50 [3]: > 58.7 µM (inactive); GI50 [4]: > 100 µM (inactive); GI50 [5]: 25.1 µM (inactive); GI50 [8]: 44.2 µM (inactive); GI50 [6]: 11 µM (inactive); GI50 [7]: > 45.9 µM (inactive)
23 | CCCc1c(O)c(=O)c2c(OC)cc(OC)c3c4c(OC)cc(OC)c5c(=O)c(O)c(CCC)c(c1c23)c54 | 0.468 µM (active) | 1.33 µM (inactive) | 
24 | O=C1/C(=N\NC(=S)Nc2ccc(Cl)cc2)c2cc([N+](=O)[O-])ccc2N1CN1CCOCC1 | 7.03 µM (inactive) | 4.37 µM (inactive) | 
25 | CC(=O)OCC(OC(C)=O)C1C[C@H]2O[C@@H]3[C@H](C[C@H]2O1)O[C@@]1(C[C@@H]3C)C[C@H](C)[C@@H]2O[C@]3(C[C@@H]2O1)C[C@H]1O[C@H]2[C@H](C)[C@H]4OC(=O)CC5CC[C@H]6OC7[C@H]8O[C@]9(CC[C@H]%10CC(O)(CO)[C@H](CC[C@H]%11C[C@@H](C)C(O)(CO)C(C[C@@H]4O[C@H]2C[C@H]1O3)O%11)O%10)CC8O[C@@H]7[C@@H](O9)[C@H]6O5 (stereo not given in full) | 0.00154 µM (active) |  | 
26 | COc1cc2c(c(OC)c1)C(C)=NC(C)C2 (stereo not given) | > 100 µM (inactive) | > 100 µM (inactive) | 
27 | C=C1C(=O)c2cc3c(cc2C(c2cc(OC)c(OC)c(OC)c2)[C@@H]1C(=O)O)OCO3 (stereo not given in full) |  |  | GI50 [3]: > 10 µM (inactive); GI50 [5]: > 100 µM (inactive); GI50 [6]: 36.7 µM (inactive); GI50 [7]: 49.1 µM (inactive)
28 | CC12CC[C@H](O)C(C)(C)[C@H]1CC[C@](C)(O)C2COc1ccc2ccc(=O)oc2c1 (stereo not given in full) |  |  | GI50 [3]: > 100 µM (inactive); GI50 [4]: > 100 µM (inactive); GI50 [5]: > 100 µM (inactive); GI50 [8]: > 100 µM (inactive); GI50 [6]: 85.3 µM (inactive); GI50 [7]: 48.4 µM (inactive)
29 | COC1C(O)=C2C(=O)O/C(C)=C/C=C/C=C/C=C\CC(c3ccccc3)NC(=O)\C=C/C=C\C=C\C=C\[C@@]2(C)[C@@H]1O (stereo not given in full) | < 0.01 µM (active) | 0.0239 µM (active) | GI50 [4]: < 0.01 µM (active); GI50 [8]: 0.0213 µM (active); GI50 [6]: 0.0249 µM (active)
30 | CNC(=O)CNC(=O)C(NC(=O)CNC(=O)C1CCCN1C(=O)C(C)NC(=O)C(NC(C)=O)C(C)C)C(C)C (stereo not given) (Ac-VAPGVG-NHMe; configuration not given here) |  | > 100 µM (inactive) | 
31 | CNC(=O)CNC(=O)C(NC(=O)CNC(=O)C1CCCN1C(=O)C(C)NC(=O)C(NC(=O)OC(C)(C)C)C(C)C)C(C)C (stereo not given) (Boc-VAPGVG-NHMe; configuration not given here) |  | > 100 µM (inactive) | 
32 | CC(C)=CC[C@H]1C[C@]2(CC=C(C)C)C(=O)[C@@](CC=C(C)C)(C(=O)C(C(=O)c3ccccc3)=C2O)C1(C)C [6-EPI-CLUSIANONE] | 14.3 µM (inactive) | 5.2 µM (inactive) | 
33 | O=S1(=O)OC(c2ccc(O)cc2)(c2ccc(O)cc2)c2ccccc21 [PHENOLSULFONPHTHALEIN] | > 100 µM (inactive) | > 100 µM (inactive) | 
